Measured values from PMC5218480 (PLoS ONE, 2017).

Test system: MV-4-11 cells
Experiment: Gene expression microarray analysis (Affymetrix PrimeView) and GSEA
Format: cell-based, human
Design: RFU PODN (11730768_x_at) / Fold change /veh PODN (11730768_x_at) / RFU LINC00158 (11744669_a_at) / Fold change /veh LINC00158 (11744669_a_at) / RFU DUSP10 (11751237_a_at) / Fold change /veh DUSP10 (11751237_a_at) / RFU ID3 (11757404_x_at) / Fold change /veh ID3 (11757404_x_at) / RFU PLEKHG5 (11737974_s_at) / Fold change /veh PLEKHG5 (11737974_s_at) / RFU LRRC4B (11730491_at) / Fold change /veh LRRC4B (11730491_at) / RFU GIMAP4 (11747438_a_at) / Fold change /veh GIMAP4 (11747438_a_at) / RFU KRT8 (11758183_x_at) / Fold change /veh KRT8 (11758183_x_at) / RFU CNN1 (11734310_a_at) / Fold change /veh CNN1 (11734310_a_at) / RFU VPS37D (11726825_at) / Fold change /veh VPS37D (11726825_at) / RFU C10orf10 (11716522_x_at) / Fold change /veh C10orf10 (11716522_x_at) / RFU KIR2DL2 /// KIR2DL4 /// KIR2DL5A /// KIR2DL5B /// KIR2DS1 /// KIR2DS2 /// KIR2DS3 /// KIR2DS4 /// KIR3DL3 /// KIR3DL3 /// KIR3DS1 (11738374_at) / Fold change /veh KIR2DL2 /// KIR2DL4 /// KIR2DL5A /// KIR2DL5B /// KIR2DS1 /// KIR2DS2 /// KIR2DS3 /// KIR2DS4 /// KIR3DL3 /// KIR3DL3 /// KIR3DS1 (11738374_at) / RFU C1QL1 (11718748_at) / Fold change /veh C1QL1 (11718748_at) / RFU TMPRSS4 (11747572_a_at) / Fold change /veh TMPRSS4 (11747572_a_at) / RFU HAMP (11756126_x_at) / Fold change /veh HAMP (11756126_x_at) / RFU RNFT2 (11725882_a_at) / Fold change /veh RNFT2 (11725882_a_at) / RFU NR4A2 (11747474_a_at) / Fold change /veh NR4A2 (11747474_a_at) / RFU ABCC12 (11746883_a_at) / Fold change /veh ABCC12 (11746883_a_at) / RFU TMEM136 (11760407_x_at) / Fold change /veh TMEM136 (11760407_x_at) / RFU CLDN22 /// WWC2 (11732394_at) / Fold change /veh CLDN22 /// WWC2 (11732394_at) / RFU HLA-DPB1 (11760878_x_at) / Fold change /veh HLA-DPB1 (11760878_x_at) / RFU SPINT1 (11716480_a_at) / Fold change /veh SPINT1 (11716480_a_at) / RFU GAP43 (11754022_s_at) / Fold change /veh GAP43 (11754022_s_at) / RFU A4GNT (11735810_at) / Fold change /veh A4GNT (11735810_at) / RFU PRB3 (11715151_x_at) / Fold change /veh PRB3 (11715151_x_at) / RFU TUBB4B (11761932_at) / Fold change /veh TUBB4B (11761932_at) / RFU CAPN14 (11732068_a_at) / Fold change /veh CAPN14 (11732068_a_at) / RFU TMCC2 (11721928_a_at) / Fold change /veh TMCC2 (11721928_a_at) / RFU IRGQ (11745062_a_at) / Fold change /veh IRGQ (11745062_a_at) / RFU FAM174B (11720279_a_at) / Fold change /veh FAM174B (11720279_a_at) / RFU TMPRSS4 (11748680_a_at) / Fold change /veh TMPRSS4 (11748680_a_at) / RFU FAM212B (11763350_a_at) / Fold change /veh FAM212B (11763350_a_at) / RFU PLEKHG5 (11743358_a_at) / Fold change /veh PLEKHG5 (11743358_a_at) / RFU ZSCAN30 (11745921_a_at) / Fold change /veh ZSCAN30 (11745921_a_at) / RFU CMKLR1 (11741424_a_at) / Fold change /veh CMKLR1 (11741424_a_at) / RFU LOC101060620 /// MAPK8IP1 (11723275_at) / Fold change /veh LOC101060620 /// MAPK8IP1 (11723275_at) / RFU SPTSSB (11747773_x_at) / Fold change /veh SPTSSB (11747773_x_at) / RFU PRSS12 (11739890_at) / Fold change /veh PRSS12 (11739890_at) / RFU BIN1 (11741810_x_at) / Fold change /veh BIN1 (11741810_x_at) / RFU WNT11 (11732464_a_at) / Fold change /veh WNT11 (11732464_a_at) / RFU C10orf10 (11716521_a_at) / Fold change /veh C10orf10 (11716521_a_at) / RFU C5orf56 (11738089_at) / Fold change /veh C5orf56 (11738089_at) / RFU CYB561 (11721691_x_at) / Fold change /veh CYB561 (11721691_x_at) / RFU ANKRD19P (11752326_a_at) / Fold change /veh ANKRD19P (11752326_a_at) / RFU OR2T12 /// OR2T33 /// OR2T8 (11738714_s_at) / Fold change /veh OR2T12 /// OR2T33 /// OR2T8 (11738714_s_at) / RFU VCAN (11748164_a_at) / Fold change /veh VCAN (11748164_a_at) / RFU JSRP1 (11732532_at) / Fold change /veh JSRP1 (11732532_at) / RFU KRTAP10-11 (11738290_x_at) / Fold change /veh KRTAP10-11 (11738290_x_at) / RFU MYO3A (11730013_a_at) / Fold change /veh MYO3A (11730013_a_at) / RFU EBF3 (11725865_a_at) / Fold change /veh EBF3 (11725865_a_at) / RFU CAMK2N1 (11719241_x_at) / Fold change /veh CAMK2N1 (11719241_x_at) / RFU C5orf56 (11738088_a_at) / Fold change /veh C5orf56 (11738088_a_at) / RFU OLFML3 (11715873_a_at) / Fold change /veh OLFML3 (11715873_a_at) / RFU LOC100653217 /// NTM (11731650_a_at) / Fold change /veh LOC100653217 /// NTM (11731650_a_at) / RFU MAPK11 (11762145_a_at) / Fold change /veh MAPK11 (11762145_a_at) / RFU FIZ1 (11724087_x_at) / Fold change /veh FIZ1 (11724087_x_at) / RFU OASL (11726364_x_at) / Fold change /veh OASL (11726364_x_at) / RFU SOX15 (11748057_x_at) / Fold change /veh SOX15 (11748057_x_at) / RFU CD79A (11719716_a_at) / Fold change /veh CD79A (11719716_a_at) / RFU HIST1H1D (11736915_at) / Fold change /veh HIST1H1D (11736915_at) / RFU CASKIN2 (11723855_a_at) / Fold change /veh CASKIN2 (11723855_a_at) / RFU LOC730098 (11760151_x_at) / Fold change /veh LOC730098 (11760151_x_at) / RFU OR4N2 (11742367_at) / Fold change /veh OR4N2 (11742367_at) / RFU PRRT2 (11749266_a_at) / Fold change /veh PRRT2 (11749266_a_at) / RFU SNX32 (11753110_a_at) / Fold change /veh SNX32 (11753110_a_at) / RFU CDHR5 (11726645_a_at) / Fold change /veh CDHR5 (11726645_a_at) / RFU RCAN1 (11760418_a_at) / Fold change /veh RCAN1 (11760418_a_at) / RFU FAM167A (11723789_a_at) / Fold change /veh FAM167A (11723789_a_at) / RFU FAM26E (11764081_at) / Fold change /veh FAM26E (11764081_at) / RFU ISYNA1 (11749810_s_at) / Fold change /veh ISYNA1 (11749810_s_at) / RFU ACY1 (11761880_at) / Fold change /veh ACY1 (11761880_at) / RFU 11764098_at / Fold change /veh 11764098_at / RFU SAMD14 (11745864_x_at) / Fold change /veh SAMD14 (11745864_x_at) / RFU NPB (11741838_a_at) / Fold change /veh NPB (11741838_a_at) / RFU TMPRSS6 (11731388_a_at) / Fold change /veh TMPRSS6 (11731388_a_at) / RFU KRTAP10-2 (11738614_at) / Fold change /veh KRTAP10-2 (11738614_at) / RFU ARHGAP8 /// PRR5-ARHGAP8 (11727945_x_at) / Fold change /veh ARHGAP8 /// PRR5-ARHGAP8 (11727945_x_at) / RFU KRTAP5-7 /// NADSYN1 (11734609_at) / Fold change /veh KRTAP5-7 /// NADSYN1 (11734609_at) / RFU RASL12 (11751679_a_at) / Fold change /veh RASL12 (11751679_a_at) / RFU CDKN2B (11736163_a_at) / Fold change /veh CDKN2B (11736163_a_at) / RFU PRF1 (11729649_at) / Fold change /veh PRF1 (11729649_at) / RFU, ZNF638 /// ZNF638-IT1 / Fold change vs veh, ZNF638 /// ZNF638-IT1 / RFU, PANK3 / Fold change vs veh, PANK3 / RFU, SH3YL1 / Fold change vs veh, SH3YL1 / RFU, ZEB2 / Fold change vs veh, ZEB2 / RFU, NRIP1 / Fold change vs veh, NRIP1 / RFU, PTTG1IP / Fold change vs veh, PTTG1IP / RFU, CAPN2 / Fold change vs veh, CAPN2 / RFU, MED14 / Fold change vs veh, MED14 / RFU, SNORA58 / Fold change vs veh, SNORA58 / RFU, C1orf63 / Fold change vs veh, C1orf63 / RFU, LRRFIP1 / Fold change vs veh, LRRFIP1 / RFU, NDUFAF7 / Fold change vs veh, NDUFAF7 / RFU, SLC12A2 / Fold change vs veh, SLC12A2 / RFU, IBTK / Fold change vs veh, IBTK / RFU, ESF1 / Fold change vs veh, ESF1 / Fold change vs veh, TMEM50B / RFU, TAOK1 / Fold change vs veh, TAOK1 / RFU, ACBD3 / Fold change vs veh, ACBD3 / RFU, TMA16 / Fold change vs veh, TMA16 / RFU, RWDD3 / Fold change vs veh, RWDD3 / RFU, BCAT1 / Fold change vs veh, BCAT1 / RFU, EDEM3 / Fold change vs veh, EDEM3 / RFU, TMEM33 / Fold change vs veh, TMEM33 / RFU, WDR75 / Fold change vs veh, WDR75 / RFU, AHCTF1 / Fold change vs veh, AHCTF1 / RFU, TFRC / Fold change vs veh, TFRC / RFU, ZDHHC17 / Fold change vs veh, ZDHHC17 / RFU, NOM1 / Fold change vs veh, NOM1 / RFU, ARL8B / Fold change vs veh, ARL8B / RFU, ZBTB11 / Fold change vs veh, ZBTB11 / RFU, TAMM41 / Fold change vs veh, TAMM41 / RFU, KIAA1704 /// LOC100996395 / Fold change vs veh, KIAA1704 /// LOC100996395 / RFU, ING1 / Fold change vs veh, ING1 / RFU, TRMT61B / Fold change vs veh, TRMT61B / RFU, FUBP3 / Fold change vs veh, FUBP3 / RFU, TP53 / Fold change vs veh, TP53 / RFU, TNKS2 / Fold change vs veh, TNKS2 / RFU, ZFP14 / Fold change vs veh, ZFP14 / RFU, ACTR2 / Fold change vs veh, ACTR2 / RFU, PPP3R1 / Fold change vs veh, PPP3R1 / RFU, PIK3R1 / Fold change vs veh, PIK3R1 / RFU, HNRNPA1 / Fold change vs veh, HNRNPA1 / RFU, RNF170 / Fold change vs veh, RNF170 / RFU, ZNF28 / Fold change vs veh, ZNF28 / RFU, RNGTT / Fold change vs veh, RNGTT / RFU, OGT / Fold change vs veh, OGT / RFU, BRD1 / Fold change vs veh, BRD1 / RFU, MARS / Fold change vs veh, MARS / RFU, ZNF655 / Fold change vs veh, ZNF655 / RFU, FAHD1 / Fold change vs veh, FAHD1 / RFU, BDP1 / Fold change vs veh, BDP1 / RFU, LRRCC1 / Fold change vs veh, LRRCC1 / RFU, ARID1A / Fold change vs veh, ARID1A / RFU, ZNF146 / Fold change vs veh, ZNF146 / RFU, ZNF330 / Fold change vs veh, ZNF330 / RFU, GPN3 / Fold change vs veh, GPN3 / RFU, C9orf123 / Fold change vs veh, C9orf123 / RFU, N4BP2L2 / Fold change vs veh, N4BP2L2 / RFU, ARFIP1 / Fold change vs veh, ARFIP1 / RFU, FAM179B / Fold change vs veh, FAM179B / RFU, BCL10 / Fold change vs veh, BCL10 / RFU, UHRF1BP1L / Fold change vs veh, UHRF1BP1L / RFU, BET1 / Fold change vs veh, BET1 / RFU, CNOT2 / Fold change vs veh, CNOT2 / RFU, ZNF268 / Fold change vs veh, ZNF268 / Fold change vs veh, ZNF507 / RFU, DGCR2 / Fold change vs veh, DGCR2 / RFU, WDSUB1 / Fold change vs veh, WDSUB1 / Fold change vs veh, HSP90B1 /// MIR3652 / RFU, ADSS / Fold change vs veh, ADSS / RFU, GK / Fold change vs veh, GK / RFU, ZNF148 / Fold change vs veh, ZNF148 / RFU, TAF9 / Fold change vs veh, TAF9 / RFU, SLC1A5 / Fold change vs veh, SLC1A5 / RFU, SLMO2 / Fold change vs veh, SLMO2 / RFU, ABCC4 / Fold change vs veh, ABCC4 / RFU, LOC101060439 /// RAP1B / Fold change vs veh, LOC101060439 /// RAP1B / RFU, RFX7 / Fold change vs veh, RFX7 / RFU, GTPBP10 / Fold change vs veh, GTPBP10 / RFU, CNEP1R1 / Fold change vs veh, CNEP1R1 / RFU, BIVM-ERCC5 /// ERCC5 / Fold change vs veh, BIVM-ERCC5 /// ERCC5 / RFU, ILF3 / Fold change vs veh, ILF3 / RFU 11762660_at / Fold change /veh 11762660_at / RFU VCAN (11757783_s_at) / Fold change /veh VCAN (11757783_s_at) / RFU DDX43 (11728927_at) / Fold change /veh DDX43 (11728927_at) / RFU KRT8 (11758188_x_at) / Fold change /veh KRT8 (11758188_x_at) / RFU NKD1 (11759106_at) / Fold change /veh NKD1 (11759106_at) / RFU SRD5A1 (11742802_a_at) / Fold change /veh SRD5A1 (11742802_a_at) / RFU TPSAB1 /// TPSB2 (11721975_s_at) / Fold change /veh TPSAB1 /// TPSB2 (11721975_s_at) / RFU GSTM3 (11746129_a_at) / Fold change /veh GSTM3 (11746129_a_at) / RFU IL23R (11737362_x_at) / Fold change /veh IL23R (11737362_x_at) / RFU TMEM51 (11727254_a_at) / Fold change /veh TMEM51 (11727254_a_at) / RFU PIWIL2 (11732686_x_at) / Fold change /veh PIWIL2 (11732686_x_at) / RFU ORM1 (11744905_x_at) / Fold change /veh ORM1 (11744905_x_at) / RFU CCDC152 (11743942_at) / Fold change /veh CCDC152 (11743942_at) / RFU ECM1 (11717891_a_at) / Fold change /veh ECM1 (11717891_a_at) / RFU IL23R (11748794_a_at) / Fold change /veh IL23R (11748794_a_at) / RFU TNFAIP8L3 (11732012_x_at) / Fold change /veh TNFAIP8L3 (11732012_x_at) / RFU MBOAT4 (11741988_at) / Fold change /veh MBOAT4 (11741988_at) / RFU 11764193_at / Fold change /veh 11764193_at / RFU TMEM53 (11763286_at) / Fold change /veh TMEM53 (11763286_at) / RFU MAGEB2 (11727129_at) / Fold change /veh MAGEB2 (11727129_at) / RFU TMEM200A (11744735_a_at) / Fold change /veh TMEM200A (11744735_a_at) / RFU CCDC152 (11751479_a_at) / Fold change /veh CCDC152 (11751479_a_at) / RFU FAM211A (11726209_a_at) / Fold change /veh FAM211A (11726209_a_at) / RFU RGS16 (11746705_a_at) / Fold change /veh RGS16 (11746705_a_at) / RFU VCAN (11755009_s_at) / Fold change /veh VCAN (11755009_s_at) / RFU RHOB (11743442_s_at) / Fold change /veh RHOB (11743442_s_at) / RFU RGS16 (11720943_a_at) / Fold change /veh RGS16 (11720943_a_at) / RFU RGS16 (11720944_at) / Fold change /veh RGS16 (11720944_at) / RFU, VPS4B / Fold change vs veh, VPS4B / RFU, CREB1 / Fold change vs veh, CREB1 / RFU, DNAJC13 / Fold change vs veh, DNAJC13 / RFU, GNAQ / Fold change vs veh, GNAQ / RFU, CDK5R1 / Fold change vs veh, CDK5R1 / RFU, ZRANB3 / Fold change vs veh, ZRANB3 / RFU, CUL4A / Fold change vs veh, CUL4A / RFU, CCNY / Fold change vs veh, CCNY / RFU, UFL1 / Fold change vs veh, UFL1 / RFU, COG3 / Fold change vs veh, COG3 / RFU, DIAPH2 / Fold change vs veh, DIAPH2 / RFU, SKA2 / Fold change vs veh, SKA2 / RFU, AFF3 / Fold change vs veh, AFF3 / RFU, LMF1 / Fold change vs veh, LMF1 / RFU, IPO11 / Fold change vs veh, IPO11 / RFU, DFFB / Fold change vs veh, DFFB / RFU, FOXP1 / Fold change vs veh, FOXP1 / RFU, CARD8 / Fold change vs veh, CARD8 / RFU, STRN3 / Fold change vs veh, STRN3 / RFU, ADK / Fold change vs veh, ADK / RFU, RASSF2 / Fold change vs veh, RASSF2 / RFU, WIPF1 / Fold change vs veh, WIPF1 / RFU, LARP1B / Fold change vs veh, LARP1B / RFU, RASA1 / Fold change vs veh, RASA1 / RFU, RB1 / Fold change vs veh, RB1 / RFU, PPFIA1 / Fold change vs veh, PPFIA1 / RFU, MAT2A / Fold change vs veh, MAT2A / RFU, CCT5 / Fold change vs veh, CCT5 / RFU, WDR92 / Fold change vs veh, WDR92 / RFU, CUX1 / Fold change vs veh, CUX1 / RFU, TTC7A / Fold change vs veh, TTC7A / RFU, TMEM135 / Fold change vs veh, TMEM135 / RFU, DEPTOR / Fold change vs veh, DEPTOR / RFU, CPM / Fold change vs veh, CPM / RFU, DNAJB6 / Fold change vs veh, DNAJB6 / RFU, CACNA2D3 / Fold change vs veh, CACNA2D3 / RFU, DTX4 / Fold change vs veh, DTX4 / RFU, TFCP2 / Fold change vs veh, TFCP2 / RFU, GMCL1 /// GMCL1P1 / Fold change vs veh, GMCL1 /// GMCL1P1 / RFU, AEBP2 / Fold change vs veh, AEBP2 / RFU, SNHG1 /// SNORD22 /// SNORD25 /// SNORD26 /// SNORD27 /// SNORD28 /// SNORD29 /// SNORD31 / Fold change vs veh, SNHG1 /// SNORD22 /// SNORD25 /// SNORD26 /// SNORD27 /// SNORD28 /// SNORD29 /// SNORD31 / Fold change (Aza/veh), C12orf56 (ProbeSet 11735607_a_at) / Fold change (ACY-1035/veh), C12orf56 (ProbeSet 11735607_a_at) / Fold change (Aza/veh), FGFR1OP (ProbeSet 11751329_s_at) / Fold change (ACY-1035/veh), FGFR1OP (ProbeSet 11751329_s_at) / Fold change (Aza/veh), VPS36 (ProbeSet 11739960_a_at) / Fold change (ACY-1035/veh), VPS36 (ProbeSet 11739960_a_at) / RFU SYPL1 (11715823_x_at) / Fold change /veh SYPL1 (11715823_x_at) / RFU IGFBP7 (11715501_s_at) / Fold change /veh IGFBP7 (11715501_s_at) / RFU REEP3 (11722064_at) / Fold change /veh REEP3 (11722064_at) / RFU IGLL1 (11728026_x_at) / Fold change /veh IGLL1 (11728026_x_at): dose or concentration left out as unconfirmed
Conditions: MV-4-11 cells, 48 hours

Question: How did the “Fold change /veh PIWIL2 (11732686_x_at)” value turn out when `Nc1ncn([C@@H]2O[C@H](CO)[C@@H](O)[C@H]2O)c(=O)n1` [azacitidine] was run?
Answer: 1.30
